Data reported in patent US12065404B2, “C4-carboxylic acid-substituted tryptamine derivatives and methods of using” (priority 2022, dated 2024).
Values joined by “and” are separate entries in the source; they are usually repeats but may differ in a detail not shown here. Identical values can stand only once. “Also recorded” adds a separate entry of the source.

Experiments:
5-HT1A receptor = biological target: T1, 5-HT1A receptor (Homo sapiens, UniProt P08908); assay: cAMP-Glo assay of 5-HT1A receptor modulation, +5-HT1A (CHO-K1/5-HT1A/Ga15) vs -5-HT1A (CHO-K1/Ga15) cells; assay type: cell-based; set-up: dose or concentration left out as unconfirmed; conditions: +5-HT1A vs -5-HT1A cell cultures stimulated with forskolin, increasing ligand concentrations
T1 construct: host or cells: CHO-K1 (co-expressing Ga15)
T1 sequence (P08908 1-422): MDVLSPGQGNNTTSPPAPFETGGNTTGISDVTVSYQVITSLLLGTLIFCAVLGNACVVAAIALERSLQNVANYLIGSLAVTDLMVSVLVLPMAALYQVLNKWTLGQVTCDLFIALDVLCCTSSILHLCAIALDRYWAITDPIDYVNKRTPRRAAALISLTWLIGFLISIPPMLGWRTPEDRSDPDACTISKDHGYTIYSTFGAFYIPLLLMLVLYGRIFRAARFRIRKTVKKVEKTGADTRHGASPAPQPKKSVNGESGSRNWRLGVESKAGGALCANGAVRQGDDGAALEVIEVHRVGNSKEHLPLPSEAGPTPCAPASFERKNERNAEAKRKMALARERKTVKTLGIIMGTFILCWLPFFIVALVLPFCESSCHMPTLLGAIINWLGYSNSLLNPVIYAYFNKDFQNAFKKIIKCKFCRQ

[1] = biological target: T2, neuronal 5-HT2A receptor (5-HT2AR) (Mus musculus, UniProt P35363); assay: Drug-induced Head Twitch Response (HTR) in mice; assay type: in vivo, C57BL/6-Elite mice; conditions: 1 mg/kg i.p., 15-to-30-minute window post-drug, relative to vehicle-treated control mice
T2 construct: HTR was measured in mice treated with a control and test compounds; tissue Charles River; host or cells: live C57BL/6-Elite mice (neuronal receptor)

[2] = Mouse pharmacokinetic (PK) study, parent compound and psilocin metabolite in plasma; assay type: in vivo, C57Bl/6 mice; conditions: for F(%) / F(%), M37 considered as an outlier: AUC0-tlast used for p.o. group; for F(%): value might be under-estimated; for F(%), M37 considered as an outlier: i.v. animal M37 considered an outlier
Source text: Briefly, the procedure was as follows. […] 19, 2022.

[3] = 1 mg/kg i.v. C(I), 6 h, individual animals
[4] = 1 mg/kg i.v. C(I), 8 h, individual animals
[5] = 1 mg/kg oral C(I), 8 h, individual animals
[6] = 1 mg/kg oral C(I), 24 h, individual animals
[7] = 1 mg/kg oral, individual animals
[8] = 3 mg/kg oral C(I), 24 h, individual animals
[9] = 3 mg/kg oral, individual animals
[10] = 10 mg/kg oral C(I), 24 h, individual animals

T2 sequence (P35363 whole entry): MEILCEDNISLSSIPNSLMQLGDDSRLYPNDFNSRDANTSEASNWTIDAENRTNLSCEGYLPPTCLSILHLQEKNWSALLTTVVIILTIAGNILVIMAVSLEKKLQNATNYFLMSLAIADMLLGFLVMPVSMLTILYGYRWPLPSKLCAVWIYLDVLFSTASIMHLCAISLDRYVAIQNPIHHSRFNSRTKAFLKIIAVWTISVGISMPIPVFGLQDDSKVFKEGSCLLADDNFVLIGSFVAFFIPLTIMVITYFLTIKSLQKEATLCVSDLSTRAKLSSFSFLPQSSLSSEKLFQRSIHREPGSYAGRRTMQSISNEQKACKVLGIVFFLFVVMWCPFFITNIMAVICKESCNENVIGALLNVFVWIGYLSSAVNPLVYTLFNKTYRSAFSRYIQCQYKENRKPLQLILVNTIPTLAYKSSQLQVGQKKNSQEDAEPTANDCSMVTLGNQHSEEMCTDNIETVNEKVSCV

CN(C)CCc1c[nH]c2cccc(OC(=O)c3ccc(Br)cc3)c12 [C(I)]
5-HT1A receptor modulation (reduction of cAMP levels) (5-HT1A receptor): mild receptor modulation at higher ligand concentrations | Incidences of Head Twitch Response (HTR) [1]: Elevated incidences of HTR | Plasma concentration of C(I) ([2]; 1 mg/kg i.v. C(I), 5 min, individual animals): 2620 ng/mL and 118 ng/mL and 94.4 ng/mL | Plasma concentration of C(I) ([2]; 1 mg/kg i.v. C(I), 0.25 h, individual animals): 1250 ng/mL and 58.5 ng/mL and 48.2 ng/mL | Plasma concentration of C(I) ([2]; 1 mg/kg i.v. C(I), 0.5 h, individual animals): 348 ng/mL and 33.4 ng/mL and 30.4 ng/mL | Plasma concentration of C(I) ([2]; 1 mg/kg i.v. C(I), 1 h, individual animals): 128 ng/mL and 17.9 ng/mL and 13.8 ng/mL | Plasma concentration of C(I) ([2]; 1 mg/kg i.v. C(I), 2 h, individual animals): 52.8 ng/mL and 3.61 ng/mL and 3.40 ng/mL | Plasma concentration of C(I) ([2]; 1 mg/kg i.v. C(I), 4 h, individual animals): 8.88 ng/mL and 0.984 ng/mL and 0.509 ng/mL | Plasma concentration of C(I) [2, 3]: 4.65 ng/mL and 0.363 ng/mL and BLQ (BLQ denotes below the lower limit of quantitation (0.5 ng/mL).) | Plasma concentration of psilocin [2, 3]: BLQ (BLQ denotes below the lower limit of quantitation (0.2 ng/ml).) | Plasma concentration of C(I) [2, 4]: BLQ (BLQ denotes below the lower limit of quantitation (0.5 ng/mL).); also recorded: No Peak | Plasma concentration of psilocin [2, 4]: BLQ (BLQ denotes below the lower limit of quantitation (0.2 ng/ml).) | Plasma concentration of C(I) ([2]; 1 mg/kg oral C(I), 0.25 h, individual animals): 0.617 ng/mL and 0.410 ng/mL and 0.910 ng/mL | Plasma concentration of C(I) ([2]; 1 mg/kg oral C(I), 0.5 h, individual animals): 0.816 ng/mL and 0.535 ng/mL and 1.28 ng/mL | Plasma concentration of C(I) ([2]; 1 mg/kg oral C(I), 1 h, individual animals): BLQ (BLQ denotes below the lower limit of quantitation (0.5 ng/mL).) and 1.02 ng/mL | Plasma concentration of C(I) ([2]; 1 mg/kg oral C(I), 2 h, individual animals): BLQ (BLQ denotes below the lower limit of quantitation (0.5 ng/mL).) and 0.600 ng/mL | Plasma concentration of C(I) ([2]; 1 mg/kg oral C(I), 4 h, individual animals): BLQ (BLQ denotes below the lower limit of quantitation (0.5 ng/mL).) | Plasma concentration of C(I) ([2]; 1 mg/kg oral C(I), 6 h, individual animals): BLQ (BLQ denotes below the lower limit of quantitation (0.5 ng/mL).) | Plasma concentration of C(I) [2, 5]: BLQ (BLQ denotes below the lower limit of quantitation (0.5 ng/mL).) | Plasma concentration of psilocin [2, 5]: BLQ (BLQ denotes below the lower limit of quantitation (0.2 ng/ml).) | Plasma concentration of C(I) [2, 6]: No Peak and No (2×) | Plasma concentration of psilocin [2, 6]: No Peak; also recorded: BLQ (BLQ denotes below the lower limit of quantitation (0.2 ng/ml).) | F(%) [2, 7]: 0.554% and 0.0450% and 0.465% | F(%), M37 considered as an outlier [2, 7]: 3.59% and 0.291% and 3.01% | F(%), M37 considered as an outlier ([2]; 1 mg/kg oral, mean ± SD): 2.30 ± 1.76% and 2.30% | Plasma concentration of C(I) ([2]; 3 mg/kg oral C(I), 0.25 h, individual animals): 2.13 ng/mL and 2.34 ng/mL | Plasma concentration of C(I) ([2]; 3 mg/kg oral C(I), 0.5 h, individual animals): 2.16 ng/mL and 1.99 ng/mL | Plasma concentration of C(I) ([2]; 3 mg/kg oral C(I), 1 h, individual animals): 1.56 ng/mL and 1.33 ng/mL | Plasma concentration of C(I) ([2]; 3 mg/kg oral C(I), 2 h, individual animals): 0.705 ng/mL and 0.720 ng/mL | Plasma concentration of C(I) ([2]; 3 mg/kg oral C(I), 4 h, individual animals): 0.569 ng/mL and 0.873 ng/mL and 1.28 ng/mL | Plasma concentration of C(I) ([2]; 3 mg/kg oral C(I), 6 h, individual animals): 0.310 ng/mL and 0.250 ng/mL | Plasma concentration of C(I) ([2]; 3 mg/kg oral C(I), 8 h, individual animals): BLQ (BLQ denotes below the lower limit of quantitation (0.5 ng/mL).) | Plasma concentration of C(I) [2, 8]: No Peak | Plasma concentration of psilocin [2, 8]: No Peak | F(%) [2, 9]: 0.484% and 0.523% | F(%), M37 considered as an outlier [2, 9]: 3.02% and 3.13% and 3.39% | F(%), M37 considered as an outlier ([2]; 3 mg/kg oral, mean ± SD): 3.18 ± 0.189% and 3.18% | Plasma concentration of C(I) ([2]; 10 mg/kg oral C(I), 0.25 h, individual animals): 3.73 ng/mL and 6.07 ng/mL | Plasma concentration of C(I) ([2]; 10 mg/kg oral C(I), 0.5 h, individual animals): 7.10 ng/mL and 10.9 ng/mL | Plasma concentration of C(I) ([2]; 10 mg/kg oral C(I), 1 h, individual animals): 5.29 ng/mL and 7.46 ng/mL | Plasma concentration of C(I) ([2]; 10 mg/kg oral C(I), 2 h, individual animals): 2.51 ng/mL and 1.47 ng/mL and 3.80 ng/mL | Plasma concentration of C(I) ([2]; 10 mg/kg oral C(I), 4 h, individual animals): 2.06 ng/mL and 3.01 ng/mL | Plasma concentration of C(I) ([2]; 10 mg/kg oral C(I), 6 h, individual animals): 1.18 ng/mL and 0.661 ng/mL | Plasma concentration of C(I) ([2]; 10 mg/kg oral C(I), 8 h, individual animals): 0.253 ng/mL and 1.10 ng/mL and 0.283 ng/mL | Plasma concentration of C(I) [2, 10]: No (2×) and No Peak | Plasma concentration of psilocin [2, 10]: BLQ (BLQ denotes below the lower limit of quantitation (0.2 ng/ml).) | F(%), M37 considered as an outlier ([2]; 10 mg/kg oral, individual animals): 2.71% and 2.90% and 4.06%
